Test results as given in patent US20230286929A1, “AROMATIC BRIDGED RING AMIDE DERIVATIVES FOR THE TREATMENT AND PROPHYLAXIS OF HEPATITIS B VIRUS INFECTION” (Hoffmann-La Roche Inc., priority 2020, published 2023).

What was measured:
Type in all cases: cell-based
HBsAg = assay: PHH HBV natural infection assay, HBsAg (alphalisa); conditions: Hepatitis B virus, Hepatocyte, 72 h, read-out: HBsAg IC50
Experimental: (§1) Detailed procedures regarding primary human hepatocyte (PHH) HBV natural infection assay are described as below. One tube of frozen PHH (10 million cells) is thawed in 37° C. water bath and then transferred to 20 mL of PHH thawing medium (Sigma, InVitroGRO HT Medium, Cat. S03319) with gently mixing. The cells were then centrifuged at […] for 5 min, the supernatant was discarded and the tube was refilled with 25 mL of PHH plating medium (Sigma, InVitroGRO CP Medium, Cat. 503317). The tube was shaken very gently to re-suspend all cells. 50 μl of cells were transferred to each well 384-well collagen I coated plate with appropriate liquid handling equipment, e.g. Integra VIAFLO384 or Agilent Bravo. The cells were then cultured for 24 hours in a cell incubator. For HBV infection, after PHH attachment on the culture plate, the plating medium was removed and replenished with PHH culture medium containing HBV virus. The PHH culture medium was prepared with Dulbecco's Modified Eagle Medium (DMEM)/F12 (1:1 in volume ratio) containing 10% fetal bovine serum (Gibco, Cat. 10099141), […] (Gibco, Cat. PHG03I1L), 20 ng/mL dexamethasone (Sigma, Cat. D4902-100 mg), 250 ng/mL human recombinant insulin (Gibco, Cat. 41400045) and 100 U/mL penicillin. HBV virus at 200 genome equivalent (GE) per cell with 4% PEG8000 (Sigma, Cat. P1458) containing culture medium were added to the PHH culture medium for infection. The cells were then cultured for 24 hours in cell incubator. Then the cell culture supernatant was removed. The HBV-infected PHH were cultured with sandwich culture method with PHH culture medium containing 1% DMSO and 0.25 mg/mL matrix gel for 72 hours. The supernatant was then refreshed with PHH culture medium containing different concentrations of testing compounds for two times with 72-hour interval. At the end of treatment, the supernatant was collected for viral markers measurements, including HBsAg, HBeAg, HBV DNA and cytotoxicity. HBsAg and HBeAg were detected using alphalisa method using their specific antibodies. For HBV DNA detection, HBV DNA Quantitative Fluorescence Diagnostic Kit (Sansure Biotech Inc.) was used following the manufacture's protocol. Cytotoxicity was determined using Cell Counting Kit-8 (CCK8, Dojindo Molecular Technologies, Inc.).
(§2) The compounds of the present invention were tested for their capacity to inhibit HBsAg and HBeAg as described herein.

HBeAg = assay: PHH HBV natural infection assay, HBeAg (alphalisa); conditions: Hepatitis B virus, Hepatocyte, 72 h, read-out: HbeAg IC50
Experimental: as §1, §2

[1] = Cytotoxicity in PHH natural infection assay (Cell Counting Kit-8); conditions: HBV-infected primary human hepatocytes, CCK8
Experimental: as §1

SMILES	IC50 (HBsAg)	IC50 (HBeAg)	CC50 at 144 h [1]
NS(=O)(=O)c1ccc(C(=O)NC23CC(c4nc5cc(Cl)ccc5o4)(C2)C3)o1 [Example 10, N-[3-(5-chloro-1,3-benzoxazol-2-yl)-1-bicyclo[1.1.1]pentanyl]-5-sulfamoyl-furan-2-carboxamide]	4.44 µM	2670 nM	> 100 µM
O=C(NC12CC(c3nc4ccc(Cl)cc4o3)(C1)C2)c1ccc(S(=O)(=O)C2CC2)o1 [Example 33, N-[3-(6-chloro-1,3-benzoxazol-2-yl)-1-bicyclo[1.1.1]pentanyl]-5-cyclopropylsulfonyl-furan-2-carboxamide]	0.792 µM	580 nM	> 100 µM
O=C(NC12CC(c3nc4ccc(Cl)cc4o3)(C1)C2)c1ccnc(C(F)(F)F)c1 [Example 37, N-[3-(6-chloro-1,3-benzoxazol-2-yl)-1-bicyclo[1.1.1]pentanyl]-2-(trifluoromethyl)pyridine-4-carboxamide]	4.17 µM	3630 nM	> 100 µM
C[S@@](=N)(=O)c1ccc(C(=O)NC23CC(c4nc5cc(Cl)ccc5o4)(C2)C3)o1 [Example 12-a, N-[3-(5-chloro-1,3-benzoxazol-2-yl)-1-bicyclo[1.1.1]pentanyl]-5-[(R)-methylsulfonimidoyl]furan-2-carboxamide]	2.23 µM	1300 nM	> 100 µM
CSc1ccc(C(=O)NC23CC(c4nc5cc(Cl)ccc5o4)(C2)C3)o1 [Example 3, N-[3-(5-chloro-1,3-benzoxazol-2-yl)-1-bicyclo[1.1.1]pentanyl]-5-methylsulfanyl-furan-2-carboxamide]	8.05 µM	3820 nM	> 100 µM
O=C(NC12CC(c3nc4ccc(Cl)cc4o3)(C1)C2)c1ccc(S(=O)(=O)CC2CC2)o1 [Example 34, N-[3-(6-chloro-1,3-benzoxazol-2-yl)-1-bicyclo[1.1.1]pentanyl]-5-(cyclopropylmethylsulfonyl)furan-2-carboxamide]	3.54 µM	2790 nM	95.4 µM
O=C(CC1CCCS1(=O)=O)NC12CCC(c3nc4cc(Cl)ccc4o3)(CC1)CC2 (stereo not drawn) [Example 53, N-[4-(5-chloro-1,3-benzoxazol-2-yl)-1-bicyclo[2.2.2]octanyl]-2-(1,1-dioxothiolan-2-yl)acetamide]	2.28 µM	1870 nM	> 100 µM
CS(=O)(=O)c1ccc(C(=O)NC23CC(c4nc5ccc(Cl)cc5o4)(C2)C3)o1 [Example 32, N-[3-(6-chloro-1,3-benzoxazol-2-yl)-1-bicyclo[1.1.1]pentanyl]-5-methylsulfonyl-furan-2-carboxamide]	5.67 µM	3460 nM	> 100 µM
C[S@+]([O-])c1ccc(C(=O)NC23CC(c4nc5cc(Cl)ccc5o4)(C2)C3)o1 [Example 2-a, N-[3-(5-chloro-1,3-benzoxazol-2-yl)-1-bicyclo[1.1.1]pentanyl]-5-[(S)-methylsulfinyl]furan-2-carboxamide]	2.38 µM	1190 nM	> 100 µM
O=C(NC12CC(c3nc4cc(Cl)ccc4o3)(C1)C2)c1ccnc(C(F)(F)F)c1 [Example 23, N-[3-(5-chloro-1,3-benzoxazol-2-yl)-1-bicyclo[1.1.1]pentanyl]-2-(trifluoromethyl)pyridine-4-carboxamide]	2.05 µM	1700 nM	96.9 µM
C[S+]([O-])c1ccc(C(=O)NC23CC(c4nc5cc(Cl)ccc5o4)(C2)C3)o1 (stereo not drawn) [Example 2, N-[3-(5-chloro-1,3-benzoxazol-2-yl)-1-bicyclo[1.1.1]pentanyl]-5-methylsulfinyl-furan-2-carboxamide]	6.45 µM	2140 nM	> 100 µM
O=C(NC12CC(c3nc4cc(Cl)ccc4o3)(C1)C2)C1CC2(C1)CS(=O)(=O)C2 [Example 30, N-[3-(5-chloro-1,3-benzoxazol-2-yl)-1-bicyclo[1.1.1]pentanyl]-2,2-dioxo-2lambda6-thiaspiro[3.3]heptane-6-carboxamide]	9.82 µM	7770 nM	> 100 µM
NS(=O)(=O)Cc1ccc(C(=O)NC23CC(c4nc5cc(Cl)ccc5o4)(C2)C3)o1 [Example 18, N-[3-(5-chloro-1,3-benzoxazol-2-yl)-1-bicyclo[1.1.1]pentanyl]-5-(sulfamoylmethyl)furan-2-carboxamide]	4.96 µM	3700 nM	> 100 µM
